Entries after “also recorded” stand apart in the source; their conditions may differ.
How the values were obtained:
BtaR2 [1] = format: cell-based, B. thailandensis
B. thailandensis JBT112 = format: cell-based, Burkholderia thailandensis
BtaR2 [2] = format: cell-based, B. thailandensis; details: 3 h
B. subtilis = format: cell-based, Bacillus subtilis; details: disc soaked in sterile medium containing 2 μM 3OHC10-HSL; B. subtilis lawn
E. coli ATCC25922 = assay: CLSI microtiter MIC assay; format: cell-based, Escherichia coli; details: 24 hours at 35° C., average from two independent experiments
Method: (§1) To test the potency of bactobolins, antibiotic assays were carried out against the human pathogens MRSA, VRE and V. parahaemo-lyticus, and against B. subtilis and E. coli (Table 3-C).
(§2) The minimum inhibitory concentrations (MIC) of each bactobolin was determined according to the 2003 guidelines of the Clinical and Laboratory Standards Institute (CLSI, formerly NCCLS) using the microtiter MIC method. Inocula for each test organism were prepared by suspending a colony from an LB agar plate into Tryptic Soy Broth and growing for 3-5 hours at 35° C. with shaking, then adjusting the culture turbidity in PBS to the equivalent of a 1.0 McFarland Standard (3×10^8 CFU/ml). These cell suspensions were used as inocula for microtiter MIC assays. 2.5 μL inoculum, which corresponded to 1×10^6 cells, was added to a 200 μL well containing each bactobolin diluted in cation-adjusted Mueller-Hinton II broth (actual CFU/ml ranged from 5×104 to 1×106), and these were incubated without shaking for 24 hours at 35° C. The MIC was defined as the lowest concentration of bactobolin (μg/ml) in which bacterial growth in the well was not measurable by determining the turbidity at 595 nm (A595) on a 96-well plate reader. See Table S8 for strains used in these assays.

S. aureus COL (MRSA) = assay: CLSI microtiter MIC assay; format: cell-based, Staphylococcus aureus; details: for Minimum Inhibitory Concentration (MIC): S. aureus COL (MRSA), 24 hours at 35° C., average from two independent experiments
Method: as §1, §2

E. faecalis V583 (VRE) = assay: CLSI microtiter MIC assay; format: cell-based, Enterococcus faecalis; details: 24 hours at 35° C., average from two independent experiments
Method: as §1, §2

[3] = test system: V. parahaemolyticus LM5674; assay: CLSI microtiter MIC assay; format: cell-based, Vibrio parahaemolyticus
Method: as §1, §2

B. subtilis 3610 = assay: CLSI microtiter MIC assay; format: cell-based, Bacillus subtilis; details: 24 hours at 35° C., average from two independent experiments
Method: as §1, §2

[4] = test system: MRSA, VRE and V. parahaemo-lyticus, B. subtilis and E. coli; assay: Antibiotic assays of bactobolins, overall comparison; format: cell-based; details: comparison over Table 3-C strains
Method: as §1, §2

tumor = details: relative to bactobolin; cited from earlier work
E. coli = details: relative to bactobolin; cited from earlier work
translation = details: relative to bactobolin; cited from earlier work
[5] = test system: B. thailandensis ΔbtaI1, I2, I3 (JBT112); format: cell-based, Burkholderia thailandensis
[6] = test system: B. thailandensis E264 (wt); format: cell-based, Burkholderia thailandensis
[7] = test system: B. thailandensis ΔbtaT (BD44); format: cell-based, Burkholderia thailandensis

Compound | Restoration of antibiotic production in JBT112 (B. thailandensis JBT112) | Activation of btaI2-lacZ transcription (BtaR2 [2]) | Minimum Inhibitory Concentration (MIC) (E. coli ATCC25922) [µg/mL] | Minimum Inhibitory Concentration (MIC) (S. aureus COL (MRSA)) [µg/mL] | Minimum Inhibitory Concentration (MIC) (E. faecalis V583 (VRE)) [µg/mL] | Minimum Inhibitory Concentration (MIC) (B. subtilis 3610) [µg/mL] | Relative potency among bactobolins [4] | also measured
CCCCCC(O)CC(=O)N[C@H]1CCOC1=O (stereo partly shown) [Bactobolin 3OHC8-HSL] | requires exogenous 3OHC8-HSL or 3OHC10-HSL for antibiotic production | Activation |  |  |  |  |  | BtaR2-dependent induction of lacZ (1233 promoter) (BtaR2 [1]): sufficient for BtaR2-dependent induction of lacZ
CCCCCCCC(O)CC(=O)N[C@H]1CCOC1=O (stereo partly shown) [Bactobolin 3OHC10-HSL] | requires exogenous 3OHC8-HSL or 3OHC10-HSL for antibiotic production | Activation |  |  |  |  |  | BtaR2-dependent induction of lacZ (1233 promoter) (BtaR2 [1]): sufficient for BtaR2-dependent induction of lacZ; antibiotic activity of acyl-HSL alone, diffusion disc (B. subtilis): not an antimicrobial molecule; also recorded: does not have antibiotic activity
CCCCCCCC(=O)N[C@H]1CCOC1=O [Bactobolin C8-HSL] | unable to restore antibiotic production | no detectable response |  |  |  |  |  | 
CCCCCCCCCC(=O)N[C@H]1CCOC1=O [Bactobolin C10-HSL, N-decanoyl-HSL] |  | response |  |  |  |  |  | 
CCCCCCCCCCCC(=O)N[C@H]1CCOC1=O [Bactobolin C12-HSL, N-dodecanoyl-HSL] |  | response |  |  |  |  |  | 
C[C@@H](N)C(=O)N[C@@H]1[C@@H]2C[C@H](O)CC(O)=C2C(=O)O[C@]1(C)C(Cl)Cl [Bactobolin C] |  |  | 25 | 6.25 | >25 | 12.5 |  | Antibiotic effectiveness in words (S. aureus COL (MRSA); MRSA): effective against these strains, though to a lesser extent; Antibiotic effectiveness in words ([3]; V. parahaemolyticus): effective against these strains, though to a lesser extent; Minimum Inhibitory Concentration (MIC) ([3]; V. parahaemolyticus LM5674, 24 hours at 35° C., average from two independent experiments): 1.56 µg/mL
C[C@H](N)C(=O)N[C@@H](C)C(=O)N[C@@H]1[C@@H]2C[C@H](O)CC(O)=C2C(=O)O[C@]1(C)C(Cl)Cl [Bactobolin D] |  |  | >100 | 37.5 |  | 100 | weakest analog | 
C[C@H](N)C(=O)N[C@@H]1[C@H]2C(=C(O)C[C@@H](O)[C@@H]2O)C(=O)O[C@@H]1C [actinobolin] |  |  |  |  |  |  |  | less active than bactobolin, murine antitumor activity (tumor): 900 fold; less active than bactobolin, E. coli kill-assays (E. coli): 21 fold; less active than bactobolin, in vitro inhibition of translation (translation): 1000 fold
Bactobolin A |  |  | 6.25 | 0.78 | >25 | 1.56 | more potent than bactobolins C and D | 
Bactobolin B |  |  | 1.56 |  | 25 | 0.39 | more potent than bactobolins C and D | Bactobolin B MIC [5]: >25 µg/mL; Bactobolin B MIC [6]: >25 µg/mL; Bactobolin B MIC [7]: >25 µg/mL

— patent US8222434B1, “Bactobolin analog and synthesis method thereof” (priority 2009, dated 2012)
